Experimental data from US7655633B2, “Nitrogen-containing heterocyclic derivatives, medicinal compositions containing the same and medicinal use thereof” (Kissei Pharmaceutical Co., Ltd., priority 2002, dated 2010).

Biological target: T1, human SGLT2 (Homo sapiens, UniProt P31639)
T1 construct: expressed in transfected cells
T1 sequence (P31639 1-672): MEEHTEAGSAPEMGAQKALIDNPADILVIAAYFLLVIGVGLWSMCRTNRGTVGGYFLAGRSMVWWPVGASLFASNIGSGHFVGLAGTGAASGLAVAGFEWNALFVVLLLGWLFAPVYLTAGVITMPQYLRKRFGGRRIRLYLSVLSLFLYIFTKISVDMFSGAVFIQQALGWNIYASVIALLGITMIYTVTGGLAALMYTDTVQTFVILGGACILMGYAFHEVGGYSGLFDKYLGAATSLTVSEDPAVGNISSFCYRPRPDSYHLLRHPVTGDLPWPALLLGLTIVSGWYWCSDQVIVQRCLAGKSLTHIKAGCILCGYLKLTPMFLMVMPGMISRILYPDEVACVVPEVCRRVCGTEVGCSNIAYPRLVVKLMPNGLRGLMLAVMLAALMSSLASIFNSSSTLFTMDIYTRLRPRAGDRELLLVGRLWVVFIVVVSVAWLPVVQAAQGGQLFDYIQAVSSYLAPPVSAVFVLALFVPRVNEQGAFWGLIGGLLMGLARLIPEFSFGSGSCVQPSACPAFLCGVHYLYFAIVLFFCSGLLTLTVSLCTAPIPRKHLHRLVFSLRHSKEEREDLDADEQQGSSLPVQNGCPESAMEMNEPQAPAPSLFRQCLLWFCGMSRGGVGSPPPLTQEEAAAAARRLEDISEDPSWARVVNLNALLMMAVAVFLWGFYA
Test: Assay for inhibitory effects on human SGLT2 activity (uptake of methyl-α-D-glucopyranoside in CS2-5E cells)
Assay type: cell-based
Settings: inhibition of 14C-labeled α-MG (1 mM) uptake, CHO-K1 cells stably expressing human SGLT2 (CS2-5E), 37° C., 1 hour
Experimental: Assay for Inhibitory Effects on Human SGLT2 Activity
1) Cloning and Construction of the Vector Expressing Human SGLT2
The cDNA library was prepared for PCR amplification by reverse transcription from total RNA deprived from human kidney (Ori gene) using oligo-dT as a primer. Using this cDNA library as a template, the base sequence coding 2 to 2039 bp of human SGLT2 (ACCESSION: M95549, M95299), which was reported by R. G. Wells et al., was amplified by PCR method and inserted into the multi-cloning site of pcDNA3.1(−) (Invitrogen). The DNA sequence inserted was perfectly matched to the previously reported sequence.
2) Establishment of Cell Line Stably Expressing Human SGLT2
The expression vector of human SGLT2 was digested by Sca I into a linear DNA. The linear DNA was transfected into CHO-K1 cells by means of lipofection (Effectene Transfection Reagent: QIAGEN). Neomycin resistant cell lines were obtained by culture in the medium containing 1 mg/mL of G418 (LIFE TECHNOLOGIES), and then the activity against the uptake of methyl-α-D-gluco-pyranoside was measured by the method described below. […] Afterward, CS2-5E cells were cultured in the presence of G418 at 200 μg/mL. […]
CS2-5E cells were seeded into a 96-well culture plate at a density of 3×10^4 cells/well and cultured for 2 days, and were used in the uptake assay. […] Radioactivity was measured by means of scintillation counter (Packard). […]

How did the IC50 turn out when `Cc1cc(C)c(Cc2ccc(C)c(F)c2)c(O[C@@H]2O[C@H](CO)[C@@H](O)[C@H](O)[C@H]2O)n1` [Example 1, 2-(β-D-Glucopyranosyloxy)-3-(3-fluoro-4-methylbenzyl)-4,6-dimethylpyridine] was run?
The IC50 was 3 nM.
